Columns and labels:
human plasma protein = conditions: cited from earlier work
[1] = Mebendazole release from SNEDDS, SEDDS, cosolvent and unformulated suspension; format: physicochemical; conditions: 60 minutes; unformulated drug in release media with placebo SNEDDS
Excerpt: Each point represents the mean ± SD of three independent determinations.
The asterisk* depicts significance between groups compared after analysis by ANOVA using Tukey's post-hoc test, at a threshold of significance at p<0.05.

SMILES: COC(=O)Nc1nc2ccc(C(=O)c3ccccc3)cc2[nH]1 [MZ, methyl 5-benzoylbenzimidazole-2-carbamate]
- drug bound to human plasma protein (human plasma protein): about 90%
- extent of drug release [1]: 1.10%
